By CC50 is commonly meant the concentration giving 50% cytotoxicity. Read a low CC50 as harm at low concentration. By EC50 is commonly meant the concentration giving half of the maximal effect. Low values mean a more potent agent, high ones a less potent agent.

These results are taken from patent US5962487A, “Antipicornaviral compounds and methods for their use and preparation” (Agouron Pharmaceuticals, Inc., priority 1997, dated 1999).

One data set relates to MRC5 cells. As to the kind of experiment: in vitro. The format is cell-based. The protocol: (§1) The Echovirus strain 11 (ECHO-11) and Enterovirus strain 70 (ENT-70) were purchased from American Type Culture Collection (ATCC). Virus stocks were propagated and antiviral assays were performed in MRC5 cells (ATCC). Cells were grown in Minimal Essential Medium with 10% fetal bovine serum.
(§2) The ability of compounds to protect cells against ECHO-11 or ENT-70 infection was measured by the XTT dye reduction method. Briefly, MRC5 cells were infected with ECHO-11 or ENT-70 at a multiplicity of infection (m.o.i.) of 0.0013 (ECHO-11) and 0.0017 (ENT-70) or mock-infected with medium only. Infected or uninfected cells were resuspended at 2×10^4 cells per mL and incubated with appropriate concentrations of drug. One day later, XTT/PMS was added to test plates, and the amount of formazan produced was quantified spectrophotometrically at 450/650 nm. The EC50 was calculated as the concentration of drug that increased the percentage of formazan production in drug-treated, virus-infected cells to 50% of that produced by drug-free, uninfected cells. The 50% cytotoxic dose (CC50) was calculated as the concentration of drug that decreased the percentage of formazan produced in drug-treated, uninfected cells to 50% of that produced in drug-free, uninfected cells. The therapeutic index (TI) was calculated by dividing the CC50 by the EC50.

A further data set in a line: in vitro. The format is cell-based. The note with it: human, mrc5 cells. The protocol: as §1, §2
In a further data set the test system is HRV-14. The data set is described as follows: Antirhinoviral HI-HeLa Cell Culture Assay (cell protection, XTT), HRV-14. The format is cell-based, human rhinovirus. A digest of the protocol:
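HI-HeLa cells infected at m.o.i. 0.13 (or mock-infected), 8×10^5 cells/mL, incubated with compounds for two days; XTT/PMS formazan read at 450/650 nm. EC50 is the concentration restoring formazan in infected cells to 50% of compound-free mock-infected; CC50 is 50% decrease in mock-infected cells; TI = CC50/EC50.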
On the technique in general: Tetrazolium assays rely on reduction of a dye to a coloured formazan, in cell work by metabolically active cells.

Data set [1] has as its target T1, Rhinovirus 3C protease (RVP) serotype-14 (Human rhinovirus 14, UniProt P03303).
T1 construct: Recombinant Rhinovirus 3C proteases from serotypes 14, 16, 2 or 89 were prepared; made in house
As to the kind of experiment: Inhibition of Rhinovirus Protease, serotype 14 (FRET assay). It counts as biochemical. The note with it: read-out: kobs/I. The essentials: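 Recombinant HRV 3C protease (50–100 nM) in 50 mM tris pH 7.6, 1 mM EDTA, 2% DMSO, with ~1 μM DABCYL-GRAVFQGPVG-EDANS FRET substrate; cleavage read as fluorescence increase. Ki: compound and enzyme preincubated 10 min at 30° C before substrate start; kobs/I from enzyme-start progress curves. Values are percent inhibition at stated μM, or Ki.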

The next data set has as its system ENT-70. The data set is described as follows: Enterovirus-70 MRC5 Cell Culture Assay. It counts as cell-based, Enterovirus strain 70. On the procedure:
as §1, §2

T1 sequence (P03303 1538-1719): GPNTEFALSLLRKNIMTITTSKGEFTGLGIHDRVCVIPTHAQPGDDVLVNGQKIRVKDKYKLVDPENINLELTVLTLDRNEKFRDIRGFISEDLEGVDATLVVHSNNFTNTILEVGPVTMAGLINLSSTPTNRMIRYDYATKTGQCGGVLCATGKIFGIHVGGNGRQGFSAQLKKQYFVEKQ

With `CCOC(=O)/C=C/[C@H](CCC(N)=O)NC(=O)[C@H](Cc1ccccc1)N(C)C(=O)[C@H](CC(C)C)NC(=O)OCc1ccccc1` [Compound 2, Ethyl-3-(CBZ-L-Leu-L-N-Me-Phe-L-Gln)-E-Propenoate], in the data set on MRC5 cells, the CC50 was 56000 nM. The compound further returned a CC50 at 24 h in the data set “in vitro” of 56000 nM. In addition, the TI was found to be 56 in the data set with HRV-14 (CC50/EC50, HRV serotype-14, 2880 min) and 93 with ENT-70 (CC50/EC50, ENT-70, 1440 min). The EC50 stood at 1000 nM in the data set with HRV-14 (Rhinovirus B, HRV14, 48 h, HRV serotype-14 infected HI-HeLa cells, XTT, two days) and 600 nM with ENT-70 (Enterovirus, 24 h, ENT-70 infection of MRC5 cells, XTT, one day). Besides, in data set [1], the kinact/KI amounted to 5300 M⁻¹ s⁻¹.
